Activity calls are given as the source filed them. The calls are words filed in the database; no cut-off is given here.
Key:
C2C12 [1] = experiment: Agonist activity at adiponectin receptor in mouse C2C12 cells assessed as increase in AMPK phosphorylation at 10 uM measured after 2 hrs by Western blot analysis; assay type: cell-based; conditions: filed as agonist
C2C12 [2] = experiment: Induction of glucose consumption in mouse C2C12 cells at 10 uM measured after 12 hrs (reference value: 100%); assay type: functional
Mus musculus [3] = experiment: Hypoglycemic activity in lean C57BL/6J mouse assessed as reduction in blood glucose level at 10 mg/kg, IG administered 2 hrs prior to glucose challenge measured up to 90 mins by IPGTT; assay type: functional, organism-based; conditions: time 3.5 hrs
Mus musculus [4] = experiment: Hypoglycemic activity in lean C57BL/6J mouse assessed as reduction in blood glucose level at 100 mg/kg, IG administered 2 hrs prior to glucose challenge measured up to 90 mins by IPGTT; assay type: functional, organism-based; conditions: time 3.5 hrs
[5] = Agonist activity at adiponectin receptor in mouse C2C12 cells assessed as increase in AMPK phosphorylation; assay type: cell-based
[6] = Stability in human liver microsomes assessed as parent compound remaining preincubated for 5 mins followed by NADPH addition measured after 45 mins by LC/MS analysis; assay type: ADME, Microsome; conditions: time 50 min, read-out: Stability
[7] = Half life in human liver microsomes by LC/MS analysis; assay type: ADME, Microsome
[8] = Stability in mouse liver microsomes assessed as parent compound remaining preincubated for 5 mins followed by NADPH addition measured after 45 mins by LC/MS analysis; assay type: ADME, Microsome; conditions: time 50 min, read-out: Stability
[9] = Half life in mouse liver microsomes by LC/MS analysis; assay type: ADME, Microsome
[10] = Intrinsic clearance in mouse liver microsomes preincubated for 5 mins followed by NADPH addition measured after 45 mins by LC/MS analysis; assay type: ADME, Microsome; conditions: time 50 min, read-out: CLH
C2C12 [11] = experiment: Agonist activity at adiponectin receptor in mouse C2C12 cells assessed as increase in ACC phosphorylation measured after 2 hrs by Western blot analysis; assay type: cell-based; conditions: filed as agonist, dose 0.1-20 µM
[12] = target: 5'-AMP-activated protein kinase (Mus musculus) (UniProt Q5EG47+Q8BRK8+Q6PAM0+O54950+Q91WG5+Q9R078+Q8BGM7); experiment: Induction of AMPK phosphorylation in mouse C2C12 cells at 10 uM measured after 1 to 12 hrs by Western blot analysis; assay type: cell-based; conditions: filed as activator, time 1-12 hrs
[13] = target: T1, Acetyl-CoA carboxylase (Homo sapiens) (UniProt Q13085+O00763); experiment: Induction of ACC phosphorylation in human HepG2 cells measured after 2 hrs by Western blot analysis; assay type: cell-based; conditions: filed as activator, dose 0.1-20 µM
HepG2 [14] = experiment: Induction of AMPK phosphorylation in human HepG2 cells at 0.1 to 20 uM measured after 2 hrs by Western blot analysis; assay type: cell-based; conditions: filed as activator, dose 0.1-20 µM
[15] = target: T1, Acetyl-CoA carboxylase (Homo sapiens); experiment: Induction of ACC phosphorylation in human HepG2 cells measured at 10 uM by Western blot analysis; assay type: cell-based; conditions: filed as activator, time 0.5-12 hrs, TDE = time-dependent effect
HepG2 [16] = experiment: Induction of AMPK in human HepG2 cells at 10 uM measured after 0.5 to 12 hrs by Western blot analysis; assay type: cell-based; conditions: filed as activator, time 0.5-12 hrs
C2C12 [17] = experiment: Cytotoxicity against mouse C2C12 cells at 5 to 20 uM measured after 72 hrs by MTT assay; assay type: toxicity, cell-based; conditions: c2c12, 72 h, dose 5-20 µM
HepG2 [18] = experiment: Cytotoxicity against human HepG2 cells at 5 to 20 uM measured after 72 hrs by MTT assay; assay type: toxicity, cell-based; conditions: hepg2, 72 h, dose 5-20 µM
[19] = Intrinsic clearance in human liver microsomes preincubated for 5 mins followed by NADPH addition measured after 45 mins by LC/MS analysis; assay type: ADME, Microsome; conditions: time 50 min, read-out: CLH
Mus musculus [20] = experiment: Hypoglycemic activity in IG dosed lean C57BL/6J mouse assessed as reduction in blood glucose level administered 2 hrs prior to glucose challenge measured up to 90 mins by IPGTT; assay type: functional, organism-based; conditions: dose 50-100 mg/kg, time 3.5 hrs
Mus musculus [21] = experiment: Anti-hyperglycemic activity in db/db mouse assessed as reduction in blood glucose level at 100 mg/kg, IG administered once daily for 2 to 6 weeks measured weekly during compound dosing; assay type: functional, organism-based; conditions: time 2-6 weeks
Mus musculus [22] = experiment: Anti-hyperglycemic activity in db/db mouse assessed as improvement in insulin resistance at 100 mg/kg, IG administered once daily for 6 weeks by insulin tolerance test; assay type: functional, organism-based
[23] = Toxicity in db/db mouse assessed as effect on body weight at 100 mg/kg, IG administered once daily for 2 to 6 weeks measured weekly during compound dosing; assay type: organism-based; conditions: in vivo, po, time 2-6 weeks

SMILES | Activity (C2C12 [1]) | Activity (C2C12 [2]) | also measured
COc1ccc(/C=C/C(=O)NC2CCN(C(=O)C(C)(C)Oc3ccc(C(=O)c4ccc(Cl)cc4)cc3)CC2)cc1OC | Active | 118.3% | 
O[C@@H]1CO[C@H]2[C@@H]1OC[C@H]2Oc1nc2nc(-c3ccc(-c4ccccc4)cc3)c(Cl)cc2[nH]1 |  |  | Activity (Mus musculus [3]): Active
CC(C)(Oc1ccc(C(=O)c2ccccc2)cc1)C(=O)N1CCC(NC(=O)/C=C/c2ccccc2)CC1 | Active | 117.6% | 
COc1cc(/C=C/C(=O)N2CCC(NC(=O)C(C)(C)Oc3ccc(C(=O)c4ccccc4)cc3)CC2)ccc1O | Active | 115.2% | 
CC(C)(Oc1ccc(C(=O)c2ccc(Cl)cc2)cc1)C(=O)N1CCC(NC(=O)/C=C/c2ccccc2)CC1 | Active | 113% | 
COc1cc(/C=C/C(=O)N2CCC(NC(=O)C(C)(C)Oc3ccc(C(=O)c4ccc(Cl)cc4)cc3)CC2)ccc1O | Active | 126.1% | 
O=C(COc1ccc(C(=O)c2ccccc2)cc1)NC1CCN(Cc2ccccc2)CC1 | Active | 135.2% | Activity (Mus musculus [4]): Active; EC50 [5]: ~10 µM
CC(C)(Oc1ccc(C(=O)c2ccccc2)cc1)C(=O)N1CCN(C(=O)/C=C/c2ccccc2)CC1 | Active | 132.5% | 
COc1ccc(/C=C/C(=O)N2CCN(C(=O)C(C)(C)Oc3ccc(C(=O)c4ccccc4)cc3)CC2)cc1OC | Active | 135.8% | 
COc1ccc(/C=C/C(=O)N2CCN(C(=O)C(C)(C)Oc3ccc(C(=O)c4ccc(Cl)cc4)cc3)CC2)cc1OC | Active | 138.5% | 
CC(C)(Oc1ccc(C(=O)c2ccc(Cl)cc2)cc1)C(=O)N1CCN(C(=O)/C=C/c2ccccc2)CC1 | Active | 129% | 
COc1ccc(/C=C/C(=O)NC2CCN(C(=O)C(C)(C)Oc3ccc(C(=O)c4ccccc4)cc3)CC2)cc1OC | Active | 116.7% | 
O=C(c1ccc(F)cc1)C1CCN(CCn2c(=O)[nH]c3ccccc3c2=O)CC1 [KETANSERIN] |  |  | remaining at 0.75 h [6]: 31%; half-life [7]: 28 min; remaining at 0.75 h [8]: 29%; half-life [9]: 26 min; CLint scaled [10]: 245 mL/min/kg
COc1cc(/C=C/C(=O)NC2CCN(C(=O)C(C)(C)Oc3ccc(C(=O)c4ccccc4)cc3)CC2)ccc1O | Active | 128.5% | 
COc1ccc(/C=C/C(=O)N2CCC(NC(=O)C(C)(C)Oc3ccc(C(=O)c4ccccc4)cc3)CC2)cc1OC | Active | 104.5% | 
CC(C)(Oc1ccc(C(=O)c2ccccc2)cc1)C(=O)NC1CCN(C(=O)/C=C/c2ccccc2)CC1 | Active | 121.3% | 
COc1ccc(/C=C/C(=O)N2CCC(NC(=O)C(C)(C)Oc3ccc(C(=O)c4ccc(Cl)cc4)cc3)CC2)cc1OC | Active | 125.1% | 
COc1cc(/C=C/C(=O)N2CCN(C(=O)C(C)(C)Oc3ccc(C(=O)c4ccc(Cl)cc4)cc3)CC2)ccc1O | Active | 141.7% | Activity (C2C12 [11]): Dose-Dependent Effect; Activity [12]: Active; Activity [13]: Dose-Dependent Effect; Activity (HepG2 [14]): Active; Activity [15]: Tde; Activity (HepG2 [16]): Active; Activity (C2C12 [17]): Non-Toxic; Activity (HepG2 [18]): Non-Toxic; remaining at 0.75 h [6]: 69%; half-life [7]: 87 min; remaining at 0.75 h [8]: 38%; CLint scaled [19]: 21 mL/min/kg; half-life [9]: 33 min; CLint scaled [10]: 156 mL/min/kg; Activity (Mus musculus [20]): Dose-Dependent Effect; Activity (Mus musculus [21]): Active; Activity (Mus musculus [22]): Active; Activity [23]: Non-Toxic
CC(C)(Oc1ccc(C(=O)c2ccc(Cl)cc2)cc1)C(=O)NC1CCN(C(=O)/C=C/c2ccccc2)CC1 | Active | 117.3% | 
COc1cc(/C=C/C(=O)N2CCN(C(=O)C(C)(C)Oc3ccc(C(=O)c4ccccc4)cc3)CC2)ccc1O | Active | 136.4% | 

Reference: ChEMBL document CHEMBL5576110, “Identification of AdipoRon analogues as novel activators of AMPK for the treatment of type 2 diabetes” (RSC Med Chem, 2024)
